One data set deals with T1, Y2 receptor (Homo sapiens, UniProt P49146).
T1 construct: host or cells: ACTOne HEK-293 cells
T1 sequence (P49146 1-381): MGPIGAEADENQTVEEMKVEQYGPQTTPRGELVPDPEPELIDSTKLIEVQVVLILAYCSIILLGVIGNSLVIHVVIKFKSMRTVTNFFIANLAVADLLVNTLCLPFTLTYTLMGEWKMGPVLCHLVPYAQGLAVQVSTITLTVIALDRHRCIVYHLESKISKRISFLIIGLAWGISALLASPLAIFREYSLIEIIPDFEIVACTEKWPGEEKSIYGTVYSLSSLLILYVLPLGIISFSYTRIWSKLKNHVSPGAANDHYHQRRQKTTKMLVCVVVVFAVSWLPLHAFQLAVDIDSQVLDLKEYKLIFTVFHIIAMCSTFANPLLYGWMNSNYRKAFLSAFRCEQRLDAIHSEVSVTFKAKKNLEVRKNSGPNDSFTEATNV
In words: Y2 receptor ACTOne based FLIPR assay (cAMP biosensor). It counts as cell-based. An excerpt:
ACTOne™ is an easily scaleable cAMP biosensor HTS platform for measurement of Gs and Gi coupled 7™ receptor signalling from BD Biosciences (San Jose, Calif.). The cells express a biosensor developed around a modified rat olfactory cyclic nucleotide gated (CNG) calcium channel—a fairly non-discriminatory ion channel that responds to cAMP and cGMP. The CNG has been engineered to be cAMP selective and thus function as a cAMP responsive biosensor that signals through calcium or membrane potential responsive dyes. Y2 or Y4 receptor expressing ACTOne HEK-293 cells are obtained from BD Biosciences. The cells are loaded with a calcium responsive dye that only distributes in the cytoplasm. Probenecid, an inhibitor of the organic anion transporter is added to prevent the dye from leaving the cell. A phosphodiesterase inhibitor is added to prevent formatted cAMP from being degraded. Isoproterenol (an β1/β2 agonist) is added to activate the adenylate cyclase. When an Y2 or Y4 receptor agonist is added, the adenylate cyclase is inactivated. The decreased calcium concentration in the cytoplasm is then detected as an increase in fluorescence. Together with the test substance, Isoproterenol at a concentration matching EC80, is added to all wells. • The cells are plated out in Greiner 384-well plates. […] The plates are covered with tinfoil to avoid light (the dye can be excited by the daylight, which results in higher baseline and variation). • The FLIPR (FLIPRtetra from Molecular Devices, CA, USA) adds 1 μl sample and 1 μl isoproterenol (0.05 μM final concentration) at the same time. • The fluorescence signal from the wells is measured 330 seconds after sample addition on the FLIPR.

Data set [1] is described as follows: Mini-pig PK assay (plasma half-life). The conditions noted are these: Göttingen, minipig, iv. In outline: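 Catheterised mini-pigs received compound i.v. at 10 nmol/kg in pH 4.0 phosphate/NaCl/tween vehicle, or alternatively i.v. or s.c. at 1–30 nmol/kg in pH 8.0 K2HPO4/tween. Stabilised plasma was sampled up to 13 days and assayed by LC-MS (LLOQ 2 nM). Half-life came from non-compartmental analysis of individual animal profiles.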

The mark [2] stands for this setting: Table 2, PP analogues, ACTOne HEK-293 cells, read-out: Y2 cAMP EC50.

pEC50: −log10 of the molar value. Read-outs that look alike come from different tables or passages of the source. *1 amine or outer side, *2 acyl side, *3 side chain or, on linkers, in order; H or OH if unused. Where a SMILES comes first, the peptide text is derived from it. Side-chain parts run from the residue outwards. The star is where a group is joined. C20 diacid = O=C(O)CCCCCCCCCCCCCCCCCCC(=O)*; C18 diacid = O=C(O)CCCCCCCCCCCCCCCCC(=O)*; γGlu = O=C(O)[C@H](CCC(=O)[*:2])N[*:1]; Trx = NC[C@H]1CC[C@H](C(=O)O)CC1; AEEA = NCCOCCOCC(=O)O Some results are limits rather than exact numbers.

On to `CC[C@H](C)[C@H](NC(=O)[C@H](Cc1ccc(O)cc1)NC(=O)[C@H](CCCNC(=N)N)NC(=O)[C@H](CCCNC(=N)N)NC(=O)[C@H](CC(C)C)NC(=O)[C@H](CC(=O)O)NC(=O)[C@H](C)NC(=O)[C@H](C)NC(=O)[C@H](Cc1ccc(O)cc1)NC(=O)[C@H](CCC(N)=O)NC(=O)[C@H](C)NC(=O)[C@H](CC(C)C)NC(=O)[C@H](CCC(N)=O)NC(=O)[C@H](CCC(=O)O)NC(=O)[C@@H]1CCCN1C(=O)[C@@H](NC(=O)[C@H](C)NC(=O)[C@H](CC(N)=O)NC(=O)[C@H](CC(=O)O)NC(=O)CNC(=O)[C@@H]1CCCN1C(=O)[C@H](Cc1ccc(O)cc1)NC(=O)[C@@H](NC(=O)[C@@H]1CCCN1C(=O)[C@H](CCC(=O)O)NC(=O)[C@H](CC(C)C)NC(=O)[C@@H]1CCCN1C(=O)[C@H](C)NC(=O)COCCOCCNC(=O)COCCOCCNC(=O)CC[C@H](NC(=O)[C@H]1CC[C@H](CNC(=O)CCCCCCCCCCCCCCCCCCC(=O)O)CC1)C(=O)O)C(C)C)[C@@H](C)O)C(=O)N[C@@H](CC(N)=O)C(=O)N[C@@H](CC(C)C)C(=O)N[C@@H](CC(C)C)C(=O)N[C@H](C(=O)N[C@@H](CCCNC(=N)N)C(=O)N1CCC[C@H]1C(=O)N[C@@H](CCCNC(=N)N)C(=O)N[C@@H](Cc1ccc(O)cc1)C(N)=O)[C@@H](C)O` [SEQ ID NO: 75, N-alfa-[2-(2-{2-[2-(2-{2-[(S)-4-Carboxy-4-({trans-4-[(19-carboxynonadecanoylamino)methyl]cyclohexanecarbonyl}amino)butyrylamino]-ethoxy}ethoxy)acetylamino]ethoxy}ethoxy)acetyl][Leu17,Leu30]hPP1-36] ({C20 diacid-Trx-γGlu-AEEA-AEEA}-APLEPVYPGDNATPEQLAQYAADLRRYINLLTRPRY-NH2; C-terminus assumed), for which, on Y2 receptor, the pEC50 was under 6.00. For the same compound, the half-life in data set [1] (in vivo, 10 nmol/kg) is 48 h.
Consider `CC[C@H](C)[C@H](NC(=O)[C@H](Cc1ccc(O)cc1)NC(=O)[C@H](CCCNC(=N)N)NC(=O)[C@H](CCCNC(=N)N)NC(=O)[C@H](CC(C)C)NC(=O)[C@H](CC(=O)O)NC(=O)[C@H](C)NC(=O)[C@H](C)NC(=O)[C@H](Cc1ccc(O)cc1)NC(=O)[C@H](CCC(N)=O)NC(=O)[C@H](CCCCNC(=O)COCCOCCNC(=O)COCCOCCNC(=O)CC[C@H](NC(=O)CCCCCCCCCCCCCCCCC(=O)O)C(=O)O)NC(=O)[C@H](CC(C)C)NC(=O)[C@H](CCC(N)=O)NC(=O)[C@H](CCC(=O)O)NC(=O)[C@@H]1CCCN1C(=O)[C@@H](NC(=O)[C@H](C)NC(=O)[C@H](CC(N)=O)NC(=O)[C@H](CC(=O)O)NC(=O)CNC(=O)[C@@H]1CCCN1C(=O)[C@H](Cc1ccc(O)cc1)NC(=O)[C@@H](NC(=O)[C@@H]1CCCN1C(=O)[C@H](CCC(=O)O)NC(=O)[C@H](CC(C)C)NC(=O)[C@@H]1CCCN1)C(C)C)[C@@H](C)O)C(=O)N[C@@H](CC(N)=O)C(=O)N[C@@H](CC(C)C)C(=O)N[C@@H](CC(C)C)C(=O)N[C@H](C(=O)N[C@@H](CCCNC(=N)N)C(=O)N1CCC[C@H]1C(=O)N[C@@H](CCCNC(=N)N)C(=O)N[C@@H](Cc1ccc(O)cc1)C(N)=O)[C@@H](C)O` [SEQ ID NO: 32, N-epsilon18-[2-(2-{2-[2-(2-{2-[(S)-4-Carboxy-4-(17-carboxyheptadecanoylamino)butyrylamino]ethoxy}ethoxy)acetylamino]-ethoxy}ethoxy)acetyl][Lys18,Leu17,Leu30]hPP2-36] (H-PLEPVYPGDNATPEQLK([AEEA-AEEA-γGlu-C18 diacid])QYAADLRRYINLLTRPRY-NH2; N-terminus and C-terminus assumed), for which the negative-log EC50 (pEC50) at Y2 receptor (setting [2]) is under 6.00. Besides, in data set [1] (12 nmol/kg), the half-life is 46 h.
Regarding `CC[C@H](C)[C@H](NC(=O)[C@H](Cc1ccc(O)cc1)NC(=O)[C@H](CCCNC(=N)N)NC(=O)[C@H](CCCNC(=N)N)NC(=O)[C@H](CC(C)C)NC(=O)[C@H](CC(=O)O)NC(=O)[C@H](C)NC(=O)[C@H](C)NC(=O)[C@H](Cc1ccc(O)cc1)NC(=O)[C@H](CCC(N)=O)NC(=O)[C@H](CCCCNC(=O)COCCOCCNC(=O)COCCOCCNC(=O)CC[C@H](NC(=O)[C@H]1CC[C@H](CNC(=O)CCCCCCCCCCCCCCCCCCC(=O)O)CC1)C(=O)O)NC(=O)[C@H](CC(C)C)NC(=O)[C@H](CCC(N)=O)NC(=O)[C@H](CCC(=O)O)NC(=O)[C@@H]1CCCN1C(=O)[C@@H](NC(=O)[C@H](C)NC(=O)[C@H](CC(N)=O)NC(=O)[C@H](CC(=O)O)NC(=O)CNC(=O)[C@@H]1CCCN1C(=O)[C@H](Cc1ccc(O)cc1)NC(=O)[C@@H](NC(=O)[C@@H]1CCCN1C(=O)[C@H](CCC(=O)O)NC(=O)[C@H](CC(C)C)NC(=O)[C@@H]1CCCN1)C(C)C)[C@@H](C)O)C(=O)N[C@@H](CC(N)=O)C(=O)N[C@@H](CC(C)C)C(=O)N[C@@H](CC(C)C)C(=O)N[C@H](C(=O)N[C@@H](CCCNC(=N)N)C(=O)N1CCC[C@H]1C(=O)N[C@@H](CCCNC(=N)N)C(=O)N[C@@H](Cc1ccc(O)cc1)C(N)=O)[C@@H](C)O` [SEQ ID NO: 43, N-epsilon18-[2-(2-{2-[2-(2-{2-[(S)-4-Carboxy-4-({trans-4-[(19-carboxynonadecanoylamino)methyl]cyclohexanecarbonyl}amino)butyrylamino]-ethoxy}ethoxy)acetylamino]ethoxy}ethoxy)acetyl][Leu17,Lys18,Leu30]hPP2-36] (H-PLEPVYPGDNATPEQLK([AEEA-AEEA-γGlu-Trx-C20 diacid])QYAADLRRYINLLTRPRY-NH2; N-terminus and C-terminus assumed), the pEC50 at Y2 receptor (setting [2]) was under 6.00. The half-life in data set [1] (13.5 nmol/kg) was 55 h.
Consider `CC[C@H](C)[C@H](NC(=O)[C@H](Cc1ccc(O)cc1)NC(=O)[C@H](CCCCNC(=O)COCCOCCNC(=O)COCCOCCNC(=O)CC[C@H](NC(=O)CCCCCCCCCCCCCCCCC(=O)O)C(=O)O)NC(=O)[C@H](CCCNC(=N)N)NC(=O)[C@H](CC(C)C)NC(=O)[C@H](CC(=O)O)NC(=O)[C@H](C)NC(=O)[C@H](C)NC(=O)[C@H](Cc1ccc(O)cc1)NC(=O)[C@H](CCC(N)=O)NC(=O)[C@H](C)NC(=O)[C@H](CC(C)C)NC(=O)[C@H](CCC(N)=O)NC(=O)[C@H](CCC(=O)O)NC(=O)[C@@H]1CCCN1C(=O)[C@@H](NC(=O)[C@H](C)NC(=O)[C@H](CC(N)=O)NC(=O)[C@H](CC(=O)O)NC(=O)CNC(=O)[C@@H]1CCCN1C(=O)[C@H](Cc1ccc(O)cc1)NC(=O)[C@@H](NC(=O)[C@@H]1CCCN1C(=O)[C@H](CCC(=O)O)NC(=O)[C@H](CC(C)C)NC(=O)[C@@H]1CCCN1)C(C)C)[C@@H](C)O)C(=O)N[C@@H](CC(N)=O)C(=O)N[C@@H](CC(C)C)C(=O)N[C@@H](CC(C)C)C(=O)N[C@H](C(=O)N[C@@H](CCCNC(=N)N)C(=O)N1CCC[C@H]1C(=O)N[C@@H](CCCNC(=N)N)C(=O)N[C@@H](Cc1ccc(O)cc1)C(N)=O)[C@@H](C)O` [SEQ ID NO: 46, N-epsilon26-[2-(2-{2-[2-(2-{2-[(S)-4-Carboxy-4-(17-carboxyheptadecanoylamino)butyrylamino]ethoxy}ethoxy)acetylamino]-ethoxy}ethoxy)acetyl][Leu17,Lys26,Leu30]hPP2-36] (H-PLEPVYPGDNATPEQLAQYAADLRK([AEEA-AEEA-γGlu-C18 diacid])YINLLTRPRY-NH2; N-terminus and C-terminus assumed), for which the negative logarithm of the EC50 (pEC50) at Y2 receptor (setting [2]) is under 6.00. The half-life in data set [1] (4 nmol/kg) is 62 h.

As a reminder, the pEC50 is −log10 of the EC50, conventionally taken in molar units. As usually defined, the half-life is how long it takes for the measured level to halve. High values mean slow decline, low ones rapid decline.

Values taken from patent publication US20110275559A1, “Long-Acting Y2 and/or Y4 Receptor Agonists” (Novo Nordisk A/S, priority 2008, published 2011).
